From patent US11498899B2, “Nitrone herbicides” (FMC Corporation, priority 2016, dated 2022)

Legend:
[1] = test system: ducksalad (Heteranthera limosa); experiment: Test B flooded paddy test, visual rating 0-100; details: Flood, 250 g ai/ha, applied to paddy water, rated after 13 to 15 days
[2] = test system: barnyardgrass (Echinochloa crus-galli); experiment: Test B flooded paddy test, visual rating 0-100; details: Flood, 250 g ai/ha, applied to paddy water, rated after 13 to 15 days
[3] = test system: ragweed (common ragweed, Ambrosia elatior); experiment: Test A preemergence, visual injury rating 0-100; type: in vivo
[4] = test system: pigweed (Amaranthus retroflexus); experiment: Test A preemergence, visual injury rating 0-100; type: in vivo
[5] = test system: ryegrass, Italian (Italian ryegrass, Lolium multiflorum); experiment: Test A preemergence, visual injury rating 0-100; type: in vivo
kochia (Kochia scoparia) [6] = experiment: Test A preemergence, visual injury rating 0-100; type: in vivo
[7] = test system: foxtail, giant (giant foxtail, Setaria faberii); experiment: Test A preemergence, visual injury rating 0-100; type: in vivo
[8] = test system: ragweed (common ragweed, Ambrosia elatior); experiment: Test A postemergence, visual injury rating 0-100; type: in vivo; details: 0 to 100 scale
[9] = test system: pigweed (Amaranthus retroflexus); experiment: Test A postemergence, visual injury rating 0-100; type: in vivo; details: 0 to 100 scale
[10] = test system: blackgrass (Alopecurus myosuroides); experiment: Test A postemergence, visual injury rating 0-100; type: in vivo; details: 0 to 100 scale
[11] = test system: ryegrass, Italian (Italian ryegrass, Lolium multiflorum); experiment: Test A postemergence, visual injury rating 0-100; type: in vivo; details: 0 to 100 scale
corn (Zea mays) = experiment: Test A postemergence, visual injury rating 0-100; type: in vivo; details: 0 to 100 scale
[12] = test system: barnyardgrass (Echinochloa crus-galli); experiment: Test A postemergence, visual injury rating 0-100; type: in vivo; details: 0 to 100 scale
kochia (Kochia scoparia) [13] = experiment: Test A postemergence, visual injury rating 0-100; type: in vivo; details: 0 to 100 scale
[14] = test system: galium (catchweed bedstraw, Galium aparine); experiment: Test A postemergence, visual injury rating 0-100; type: in vivo; details: 0 to 100 scale
[15] = test system: wheat (Triticum aestivum); experiment: Test A postemergence, visual injury rating 0-100; type: in vivo; details: 0 to 100 scale
[16] = test system: foxtail, giant (giant foxtail, Setaria faberii); experiment: Test A postemergence, visual injury rating 0-100; type: in vivo; details: 0 to 100 scale
rice (Oryza sativa) = experiment: Test B flooded paddy test, visual rating 0-100 (0 no effect, 100 complete control); details: Flood, 250 g ai/ha, applied to paddy water, rated after 13 to 15 days
[17] = test system: barnyardgrass (Echinochloa crus-galli); experiment: Test A preemergence, visual injury rating 0-100 (0 no effect, 100 complete control); type: in vivo

Compound	Ducksalad plant response rating (0 to 100 scale) [1]	Barnyardgrass plant response rating (0 to 100 scale) [2]	Ragweed plant response rating (0 to 100 scale) ([3]; 125 g ai/ha)	Ragweed plant response rating (0 to 100 scale) ([3]; 500 g ai/ha)	Pigweed plant response rating (0 to 100 scale) ([4]; 125 g ai/ha)	Pigweed plant response rating (0 to 100 scale) ([4]; 500 g ai/ha)	Ryegrass, Italian plant response rating (0 to 100 scale) ([5]; 125 g ai/ha)	Ryegrass, Italian plant response rating (0 to 100 scale) ([5]; 500 g ai/ha)	Kochia plant response rating (0 to 100 scale) (kochia (Kochia scoparia) [6]; 125 g ai/ha)	Kochia plant response rating (0 to 100 scale) (kochia (Kochia scoparia) [6]; 500 g ai/ha)	Foxtail, Giant plant response rating (0 to 100 scale) ([7]; 125 g ai/ha)	Foxtail, Giant plant response rating (0 to 100 scale) ([7]; 500 g ai/ha)	Ragweed plant response rating ([8]; 125 g ai/ha)	Ragweed plant response rating ([8]; 500 g ai/ha)	Pigweed plant response rating ([9]; 125 g ai/ha)	Pigweed plant response rating ([9]; 500 g ai/ha)	Blackgrass plant response rating ([10]; 125 g ai/ha)	Blackgrass plant response rating ([10]; 500 g ai/ha)	Ryegrass, Italian plant response rating ([11]; 125 g ai/ha)	Ryegrass, Italian plant response rating ([11]; 500 g ai/ha)	other results
CC1=[N+]([O-])C(C(=O)Nc2cccc(F)c2F)C(c2ccc(F)cc2Oc2ncc(F)cn2)C1 (racemic) [Compound 68]	0	0	0	70	0	0	20	90	0	30	50	100	0	0	0	30	70	70	20	90	Corn plant response rating (corn (Zea mays); 125 g ai/ha): 20; Corn plant response rating (corn (Zea mays); 500 g ai/ha): 90; Barnyardgrass plant response rating ([12]; 125 g ai/ha): 0; Barnyardgrass plant response rating ([12]; 500 g ai/ha): 40; Kochia plant response rating (kochia (Kochia scoparia) [13]; 125 g ai/ha): 0; Kochia plant response rating (kochia (Kochia scoparia) [13]; 500 g ai/ha): 30; Galium plant response rating ([14]; 125 g ai/ha): 30; Galium plant response rating ([14]; 500 g ai/ha): 40; Wheat plant response rating ([15]; 125 g ai/ha): 30; Wheat plant response rating ([15]; 500 g ai/ha): 80; Foxtail, Giant plant response rating ([16]; 125 g ai/ha): 0; Foxtail, Giant plant response rating ([16]; 500 g ai/ha): 90; Rice plant response rating (0 to 100 scale) (rice (Oryza sativa)): 0; Barnyardgrass plant response rating (0 to 100 scale) ([17]; 125 g ai/ha): 20; Barnyardgrass plant response rating (0 to 100 scale) ([17]; 500 g ai/ha): 100
CC1=[N+]([O-])C(C(=O)Nc2cccc(F)c2F)C(c2ccc(C)c(Br)c2)C1 (racemic) [Compound 71]	0	0	0	60	0	40	30	90	10	80	80	90	0	50	20	10	40	70	60	80	Corn plant response rating (corn (Zea mays); 125 g ai/ha): 70; Corn plant response rating (corn (Zea mays); 500 g ai/ha): 90; Barnyardgrass plant response rating ([12]; 125 g ai/ha): 80; Barnyardgrass plant response rating ([12]; 500 g ai/ha): 90; Kochia plant response rating (kochia (Kochia scoparia) [13]; 125 g ai/ha): 10; Kochia plant response rating (kochia (Kochia scoparia) [13]; 500 g ai/ha): 50; Galium plant response rating ([14]; 125 g ai/ha): 30; Galium plant response rating ([14]; 500 g ai/ha): 50; Wheat plant response rating ([15]; 125 g ai/ha): 20; Wheat plant response rating ([15]; 500 g ai/ha): 70; Foxtail, Giant plant response rating ([16]; 125 g ai/ha): 40; Foxtail, Giant plant response rating ([16]; 500 g ai/ha): 60; Rice plant response rating (0 to 100 scale) (rice (Oryza sativa)): 0; Barnyardgrass plant response rating (0 to 100 scale) ([17]; 125 g ai/ha): 90; Barnyardgrass plant response rating (0 to 100 scale) ([17]; 500 g ai/ha): 90
CC1=[N+]([O-])C(C(=O)Nc2cccc(F)c2F)C(c2ccc(C)c(Cl)c2)C1 (racemic) [Compound 72]	15	40	20	90	30	30	30	90	20	80	90	90	0	50	10	30	60	70	30	70	Corn plant response rating (corn (Zea mays); 125 g ai/ha): 40; Corn plant response rating (corn (Zea mays); 500 g ai/ha): 70; Barnyardgrass plant response rating ([12]; 125 g ai/ha): 90; Barnyardgrass plant response rating ([12]; 500 g ai/ha): 90; Kochia plant response rating (kochia (Kochia scoparia) [13]; 125 g ai/ha): 0; Kochia plant response rating (kochia (Kochia scoparia) [13]; 500 g ai/ha): 40; Galium plant response rating ([14]; 125 g ai/ha): 50; Galium plant response rating ([14]; 500 g ai/ha): 50; Wheat plant response rating ([15]; 125 g ai/ha): 30; Wheat plant response rating ([15]; 500 g ai/ha): 80; Foxtail, Giant plant response rating ([16]; 125 g ai/ha): 50; Foxtail, Giant plant response rating ([16]; 500 g ai/ha): 80; Rice plant response rating (0 to 100 scale) (rice (Oryza sativa)): 0; Barnyardgrass plant response rating (0 to 100 scale) ([17]; 125 g ai/ha): 80; Barnyardgrass plant response rating (0 to 100 scale) ([17]; 500 g ai/ha): 90
CC1=[N+]([O-])C(C(=O)Nc2cccc(F)c2F)C(c2ccc(C(F)(F)F)c(Br)c2)C1 (racemic) [Compound 73]	0	0	50	80	40	70	50	90	20	60	80	90	0	20	30	70	40	80	0	60	Corn plant response rating (corn (Zea mays); 125 g ai/ha): 50; Corn plant response rating (corn (Zea mays); 500 g ai/ha): 70; Barnyardgrass plant response rating ([12]; 125 g ai/ha): 30; Barnyardgrass plant response rating ([12]; 500 g ai/ha): 70; Kochia plant response rating (kochia (Kochia scoparia) [13]; 125 g ai/ha): 10; Kochia plant response rating (kochia (Kochia scoparia) [13]; 500 g ai/ha): 20; Galium plant response rating ([14]; 125 g ai/ha): 10; Galium plant response rating ([14]; 500 g ai/ha): 50; Wheat plant response rating ([15]; 125 g ai/ha): 0; Wheat plant response rating ([15]; 500 g ai/ha): 60; Foxtail, Giant plant response rating ([16]; 125 g ai/ha): 40; Foxtail, Giant plant response rating ([16]; 500 g ai/ha): 70; Rice plant response rating (0 to 100 scale) (rice (Oryza sativa)): 0; Barnyardgrass plant response rating (0 to 100 scale) ([17]; 125 g ai/ha): 90; Barnyardgrass plant response rating (0 to 100 scale) ([17]; 500 g ai/ha): 90
